Consider 1 molecule from patent publication US20240100146A1 (priority 2022, published 2024).

The test system of the test is MHV1. More on the design: species or system A/J mice. The following applies: mouse, in vivo.

Regarding `CC(=O)N[C@H]1[C@H]([C@H](O)[C@H](O)CO)OC(C(=O)O)=C[C@@H]1N=C(N)N` [zanamivir], the “% protection (survival) against lethal MHV1 challenge” value is listed as 0%.
